Laboratory results: patent US4820715A, “Anti-emetic quinuclidinyl benzamides” (Bristol-Myers Company, priority 1987, dated 1989)
Counter-ions that a name gives are not always drawn.

Assays:
Cisplatin-Induced Emesis = experiment: Antagonism of Cisplatin-Induced Emesis in the Ferret; format: in vivo, Fitch ferrets; details: Mustela putorius, iv, 4 h, i.v. × 2, read-out: Antagonism of Cisplatin-Induced Emesis in the Ferret, % Protection
Source text: The ventral and dorsal area of the neck is shaved and a 3 cm incision is made. The left jugular vein is exposed and ligated with a silk suture at the cephalic end. The indwelling catheter is constructed of Silastic tubing 18 cm in length (0.020 inch I.D.×0.037 inch O.D.) with a 2 cm polyethylene sleeve (0.045 inch I.D.×0.062 inch O.D.) filled with heparin (1000 units/ml) and sealed at the exposed end with a 23 gauge×1 inch needle crimped at both ends. A small cut is made in the jugular and the catheter inserted, allowing the free end to be delivered through a 13 gauge×5 cm trochar under the skin and attached to the nape of the neck with a silk suture. The ferrets are housed in individual cages and allowed 2-4 days recovery before testing. On the test day, the test compounds were administered i.v. […] The cisplatin solution was prepared by adding 70° C. physiological saline, stirring and sonicating until dissolved. The resulting solution (4 mg/ml) was maintained at 40° C. and administered i.v. ([…]) via the catheter. Following administration of cisplatin, the ferrets were observed continuously for four hours and emetic episodes recorded. Two or more emetic episodes within a one-minutes period was considered as a single episode. The ferrets were euthanized with T-61 i.v. at the termination of the experiment, and proper placement of the catheter was verified.

[1] = system: Apomorphine-Induced Emesis; experiment: Antagonism of Apomorphine-Induced Emesis in Dogs; format: in vivo, beagle dogs; details: Canis lupus familiaris, sc; s.c. 30 minutes prior to apomorphine 0.3 mg/kg; dog; read-out: Antagonism of Apomorphine-Induced Emesis in the Dog ED50
Procedure: Unfasted beagle dogs of both sexes were used as test subjects. Test compounds and apomorphine were each administered subcutaneously as aqueous solutions, with the test compound being administered 30 minutes prior to the administration of the apormorphine.
Apomorphine was administered at a dose of 0.3 mg/kg. […] All tests were run in at least two dogs.

[2] = target: dopaminergic (D2) receptors (Rattus norvegicus, UniProt P61169); experiment: biochemical; format: binding; details: striatal rat brain homogenates, ^3H-spiperone, 37° C., 15 minutes; read-out: 3H-Spiperone Displacement IC50
dopaminergic (D2) receptors, sequence (P61169 whole entry): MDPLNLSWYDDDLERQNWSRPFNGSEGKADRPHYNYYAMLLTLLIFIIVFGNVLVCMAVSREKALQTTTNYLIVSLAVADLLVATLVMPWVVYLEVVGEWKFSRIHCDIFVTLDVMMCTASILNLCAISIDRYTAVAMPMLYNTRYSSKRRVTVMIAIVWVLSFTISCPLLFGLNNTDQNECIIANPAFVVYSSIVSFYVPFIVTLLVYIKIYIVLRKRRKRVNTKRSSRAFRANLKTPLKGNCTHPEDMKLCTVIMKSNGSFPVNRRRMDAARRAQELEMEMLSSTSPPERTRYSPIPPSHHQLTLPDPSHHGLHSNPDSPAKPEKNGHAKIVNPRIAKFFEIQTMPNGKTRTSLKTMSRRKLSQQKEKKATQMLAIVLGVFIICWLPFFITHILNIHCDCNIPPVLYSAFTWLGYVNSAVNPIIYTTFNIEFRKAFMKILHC
Procedure: Rats (150±10 g; Charles River) were decapitated, the corpus striatum dissected out and frozen on dry ice. The tissues were pooled and stored at -80° C. until used. Homogenates (Brinkmann Polytron) of the corpus striatum in cold HEPES.KOH buffer (final pH=7.4) were centrifuged at 39,000×G. The supernatant was discarded and the pellets were re-suspended in HEPES.KOH buffer and re-centrifuged as above.
Tests to determine the Inhibitory Concentration50 (IC50) of the compounds of Formula I and reference compounds versus ^3 H-spiperone were conducted as follows. Tubes containing either 100 μL of buffer mixture (for total binding), 100 μL of buffer mixture plus 100 μL of 10^-4 M D(+)-butaclamol (for blanks, i.e. non-specific binding), or 100 μL of buffer mixture containing 10^-7, 10^-6 or 10^-5 M test compound were prepared. To each were added 100 μL of a solution of ^3 H-spiperone (New England Nuclear) in buffer mixture (2000 c.p.m. in the incubation mixture) and 800 μL of the striatal tissue suspension. The tubes were then diluted to 1 mL with buffer mixture, giving a final concentration of 10^-8, 10^-7 or 10^-6 M test compound and approximately 100 pM ^3 H-spiperone. The samples were incubated at 37° C. for 15 minutes, filtered in vacuo on glass fiber filters and counted by liquid scintillation spectrometry. […] All samples were run in duplicate.

[3] = system: field-stimulated guinea pig ileum; experiment: Gastrokinetic Activity: contraction of field-stimulated guinea pig ileum preparations; set-up: species or system guinea pig (Hartley); details: Cavia porcellus; for EC30: effective concentration30, read-out: EC30 (95% C.L.); for EC50: effective concentration50, read-out: EC50 (95% C.L.); for minimal effective concentration: read-out: Minimum Effective Concentration
Procedure: This activity is considered to be correlated with gastrokinetic (prokinetic) activity in vivo, i.e. enhancement of gastric motility and gastric emptying.
Normal, male guinea pigs (Hartley; Charles River) weighing […] are sacrificed by cervical dislocation. The terminal portion of the ileum was removed after discarding a 10 cm segment nearest to the ileocecal junction. The strips, 3-4 cm in length, were mounted in a 20 ml organ bath containing Krebs physiological buffer solution. The buffer was bubbled with 95% O2 -5% CO2 and kept at 37° C. The resting tension was adjusted to 1.0 g, and the tissues were equilibrated without stimulation for 15 minutes. For electrical stimulation, a platinum wire (cathode) was threaded up through the lumen and another platinum wire (anode) was attached to the glass rod that suspended the muscle. Tissues were stimulated coaxially at 1.5 times the voltage necessary to produce maximum twitch height, with single pulses, 0.5 msec in duration, delivered once every 10 seconds. After the 15 minute equilibration period (without stimulation), the stimulator (Grass S88 Stimulator) was turned on and the tissues were allowed to stabilize for approximately 1 hour, or until the twitch height remained constant, with washes every 20 minutes.

[4] = read-out: Average % Maximum Increase

SMILES | inhibition in vivo at 3 mg/kg (Cisplatin-Induced Emesis) | ED50 [1] | IC50 [2] | activation at 100 µM ([3]; at 100 μM, read-out: Average % Maximum Increase) | EC30 [3] | EC50 [3] | minimal effective concentration [3] | activation at 30 µM [3, 4] | inhibition in vivo at 1 mg/kg (Cisplatin-Induced Emesis) | activation at 10 µM [3, 4] | activation at 300 µM ([3]; at 300 μM, read-out: Average % Maximum Increase)
CCN(CC)CCNC(=O)c1cc(Cl)c(N)cc1OCC(C)=NOC [Example 11, 4-Amino-5-chloro-N-[2-(diethylamino)ethyl]-2-[(2-methoxyimino)propan-1-yl]oxybenzamide] | 90% | > 3 mg/kg | > 1000 nM | – | – | – | – | – | – | – | –
CCN(CC)CCNC(=O)c1cc(Cl)c(N)cc1OCC(N)=O [Example 16, 4-Amino-2-(2-amino-2-oxoethoxy)-5-chloro-N-[2-(diethylamino)ethyl]benzamideAcetate Monohydrate] | 21% | > 3 mg/kg | > 1000 nM | 72% | 500 nM | 3700 nM | 0.03 µM | – | – | – | –
CCN(CC)CCNC(=O)c1cc(Cl)c(N)cc1OCCSC [Example 20, 4-Amino-5-chloro-N-[2-(diethylamino)ethyl]-2-[2-(methylthio)ethoxy]benzamide] | 50% | > 3 mg/kg | > 1000 nM | – | – | – | – | – | – | – | –
CCN(CC)CCNC(=O)c1cc(Cl)c(N)cc1OCC[S+](C)[O-] (stereo not drawn) [Example 21, 4-Amino-5-chloro-N-[2-(diethylamino)ethyl]-2-[2-(methylsulfinyl)ethoxy]benzamide] | 49% | > 3 mg/kg | > 1000 nM | – | 570 nM | 2300 nM | 0.1 µM | 88% | – | – | –
CC(=O)C(C)Oc1cc(N)c(Cl)cc1C(=O)NCCN(C)C (stereo not drawn) [Example 32, 4-Amino-2-(2-butanon-3-yl)oxy-5-chloro-N-[2-(dimethylamino)ethyl]benzamide] | – | > 3 mg/kg | > 1000 nM | – | – | – | – | – | 72% | – | –
CCN(CC)CCNC(=O)c1cc(Cl)c(N)cc1OC(C)C(C)=NO (stereo not drawn) [Example 34, 4-Amino-5-chloro-N-[2-(diethylamino)ethyl]-2-(2-hydroxyiminobut-3-yl)oxybenzamide] | – | > 3 mg/kg | > 1000 nM | – | – | – | – | – | 54% | – | –
CCOC(=O)C(Oc1cc(N)c(Cl)cc1C(=O)NCCN(CC)CC)c1ccccc1 (stereo not drawn) [Example 35, α-{3-Amino-4-chloro-6-[N-(2-[diethylamino]ethyl)]carbomoylphenoxy}phenylacetic acid, ethyl ester] | 72% | > 3 mg/kg | > 1000 nM | – | – | – | – | – | – | – | –
CCN(CC)CCNC(=O)c1cc(Cl)c(N)cc1OCC(=O)NN.O.O.O [Example 36, 4-Amino-5-chloro-N-[2-(diethylamino)ethyl]-2-(2-hydrazino-2-oxoethoxy)benzamide Trihydrate] | 86% | > 3 mg/kg | > 1000 nM | – | 500 nM | 4600 nM | 0.1 µM | – | – | 55% | –
CCN(CC)CCNC(=O)c1cc(Cl)c(N)cc1OCC(=O)NNC(C)=O [Example 37, 4-Amino-5-chloro-N-[2-(diethylamino)ethyl]-2-[2-(2-acetylhydrazino)-2-oxoethoxy]benzamide Acetate] | 57% | > 3 mg/kg | > 1000 nM | – | 720 nM | 6600 nM | – | – | – | – | 83%
CCN(CC)CCNC(=O)c1cc(Cl)c(N)cc1OCCCN1C(=O)c2ccccc2C1=O [Example 38, 4-Amino-5-chloro-N-[2-(diethylamino)ethyl]-2-[3-(phthalimido)propoxy]benzamide] | 57% | > 3 mg/kg | > 1000 nM | – | – | – | – | – | – | – | –
CCN(CC)CCNC(=O)c1cc(Cl)c(N)cc1OCCCN [Example 39, 4-Amino-2-(3-aminopropoxy)-5-chloro-N-[2-(diethylamino)ethyl]benzamide] | 71% | > 3 mg/kg | > 1000 nM | – | – | – | – | – | – | – | –
CCN(CC)CCNC(=O)c1cc(Cl)c(N)cc1OCC(=O)NC [Example 40] | 62% | > 3 mg/kg | > 1000 nM | – | 900 nM | 5500 nM | 0.1 µM | – | – | 56% | –
CCOC(=O)C=C(COc1cc(N)c(Cl)cc1C(=O)NCCN(CC)CC)OC [Example 42, 4-Amino-5-chloro-N-[2-(diethylamino)ethyl]-2-(ethyl-3-methoxycroton-4-yl)oxybenzamide] | 95% | > 3 mg/kg | > 1000 nM | – | – | – | – | – | – | – | –
CCN(CC)CCNC(=O)c1cc(Cl)c(N)cc1OCC1CNC(=O)O1 (stereo not drawn) [Example 44, 4-Amino-5-chloro-N[2-(diethylamino)ethyl]-2-(oxazolidin)-2-one-5-ylmethyl)oxybenzamide Fumarate] | 71% | > 3 mg/kg | > 1000 nM | – | – | – | – | – | – | – | –
CCN(CC)CCNC(=O)c1cc(Cl)c(N)cc1OCCN [Example 47, 4-Amino-2-(2-aminoethoxy)-5-chloro-N-[2-(diethylamino)ethyl]benzamide] | 8% | > 3 mg/kg | > 1000 nM | – | – | – | – | – | – | – | –
CCN(CC)CCNC(=O)c1cc(Cl)c(N)cc1OCCNC(C)=O [Example 48] | 47% | > 3 mg/kg | > 1000 nM | – | 2300 nM | 13000 nM | 0.1 µM | – | – | 47% | –
CCN(CC)CCNC(=O)c1cc(Cl)c(N)cc1OCCCSC [Example 49, 4-Amino-5-chloro-N-[2-(diethylamino)ethyl]-2-[3-(methylthio)propoxy]benzamide] | 62% | > 3 mg/kg | > 1000 nM | – | – | – | – | – | – | – | –
CCN(CC)CCNC(=O)c1cc(Cl)c(N)cc1OCCC[S+](C)[O-] (stereo not drawn) [Example 50, 4-Amino-5-chloro-N-[2-(diethylamino)ethyl]-2-[3-(methylsulfinyl)propoxy]benzamide] | 62% | > 3 mg/kg | > 1000 nM | – | 12000 nM | 39000 nM | 1 µM | 45% | – | – | –
CCN(CC)CCNC(=O)c1cc(Cl)c(N)cc1OCCCl [Example 53, 4-Amino-5-chloro-2-(2-chloroethoxy)-N-[2-(2-diethylamino)ethyl]benzamide] | 91% | > 3 mg/kg | > 1000 nM | – | – | – | – | – | – | – | –
CCN(CC)CCNC(=O)c1cc(Cl)c(N)cc1OCC(=O)N(C)C [Example 55] | 66% | > 3 mg/kg | > 1000 nM | – | – | – | – | – | – | – | –
CCN(CC)CCNC(=O)c1cc(Cl)c(N)cc1OCCOC(C)=O [Example 57, 2-(2-Acetoxyethoxy)-4-amino-5-chloro-N-[2-(diethylamino)ethyl]-benzamide] | 66% | > 3 mg/kg | > 1000 nM | – | – | – | – | – | – | – | –
